Earlier results, collected in US20100012894A1, “Tooth Whitening Compositions and Methods” (priority 2008, published 2010).

Details: at six months; concentrations 16%-18% carbamide peroxide (Brunton et al., 2004)

## NC(N)=O.OO [carbamide peroxide]
  rebound: 40 % of patients
